From patent US20230099344A1, “COMPOUNDS AND METHODS FOR THE TARGETED DEGRADATION OF IRAK-4” (Arvinas Operations, Inc., priority 2021, published 2023) come the findings set out here.

What is called DC50 is the midpoint of the concentration-degradation curve. Lower therefore signals a more potent degrader. As a reminder, the IC50 is the concentration that inhibits the measured activity by half.

Holding throughout (format): cell-based
Assay [1] deals with T1, IRAK-4 (Homo sapiens, UniProt Q9NWZ3).
T1 sequence (Q9NWZ3 1-460): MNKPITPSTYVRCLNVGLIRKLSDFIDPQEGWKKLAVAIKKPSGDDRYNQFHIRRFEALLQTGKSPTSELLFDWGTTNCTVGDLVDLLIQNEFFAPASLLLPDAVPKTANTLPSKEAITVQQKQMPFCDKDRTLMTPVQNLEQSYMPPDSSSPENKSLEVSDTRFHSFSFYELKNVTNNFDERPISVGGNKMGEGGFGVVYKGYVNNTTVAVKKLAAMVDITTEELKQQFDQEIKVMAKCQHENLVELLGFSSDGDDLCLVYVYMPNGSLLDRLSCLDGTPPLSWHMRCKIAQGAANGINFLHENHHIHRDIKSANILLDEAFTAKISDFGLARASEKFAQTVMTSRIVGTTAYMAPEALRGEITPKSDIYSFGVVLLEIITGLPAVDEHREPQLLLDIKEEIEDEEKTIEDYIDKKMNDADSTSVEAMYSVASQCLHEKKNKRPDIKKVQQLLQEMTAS
Nature of the assay: IRAK-4 ELISA, OCI-Ly10 degradation. More on the design: endogenous in cells. The conditions noted are these: treated overnight; for Dmax: OCI-Ly10, OCI-Ly10 cells; for DC50: OCI-Ly10 cells. On the procedure:
Reagents: Human IRAK-4 Matched Antibody Pair Kit (Abcam ab218182) and ELISA Accessory Pack (Abcam ab210905).
Cell Treatment and Lysis:
1. OCI-Ly10: 200,000 cells are seeded at 1×10^6/ml in 96-well U-bottom plates 200 ul per well, treated with compound the same day. Incubate overnight. 2. PBMC: 800,000 cells are seeded at 2×10^6/ml in 96-well U-bottom deep-well plates, 400 ul per well, treated with compound the same day. Incubate overnight.
Cell lysate is collected and analyzed by ELISA for IRAK-4 levels.

For assay [2], the system named is IL6. Nature of the assay: LPS stimulated IL6 inhibition assay in PBMC. The conditions noted are these: Homo sapiens, PBMC, 24 h, human PBMCs, LPS stimulation, compound overnight, IL6 by MSD after 24 hrs; for Dmax: read-out: LPS Stim IL6 inhibition Dmax; for IC50: read-out: LPS stim IL6 inhibition IC50. The procedure, abridged:
(§1)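 Human PBMC at 2.0×10^6 cells/mL were pre-treated with compound overnight, then stimulated with IL-1β, LPS or R848, each at the donor-specific EC50 concentration. After 24 hrs, supernatant IL6 and/or IL8 was measured by MSD.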

The subject of assay [3] is IL6. Kind of assay: R848 stimulated IL6 inhibition assay in PBMC. The conditions noted are these: PBMC, human PBMCs, R848 stimulation, compound overnight, IL6 by MSD after 24 hrs; for Dmax: Homo sapiens, 24 h, read-out: R848 stim IL6 inhibition Dmax; for IC50: read-out: R848 stim IL6 inhibition IC50. The procedure, abridged: as §1
Assay [4] addresses T1, IRAK-4. Kind of assay: IRAK-4 ELISA, PBMC degradation. More on the design: endogenous in cells; host or cells: PBMC. The conditions noted are these: treated overnight. The procedure, abridged:
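OCI-Ly10 cells (1×10^6/ml) or PBMC (2×10^6/ml) treated with compound on the day of seeding and incubated overnight. IRAK-4 protein remaining in cell lysates quantified by sandwich ELISA.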
(An ELISA detects its analyte on a solid surface through an enzyme-linked reagent.)

Where only a bound is given, the exact number is not on record here.

With `CC(C)Oc1cc2c(cc1NC(=O)c1cnn3cccnc13)CN(C1CCN(CCc3ccc4c(c3)C(=O)N(C3CCC(=O)NC3=O)C4=O)CC1)C2=O` (stereo not drawn) [Example 7], at IRAK-4 [1], the Dmax fell in the range of 80 to 90% and the DC50 fell in the range of 10 to 50 nM.
In the case of `CC(C)Oc1cc2c(cc1NC(=O)c1cnn3cccnc13)CN(C1CCN(CCc3ccc4c(c3)CN(C3CCC(=O)NC3=O)C4=O)CC1)C2=O` (stereo not drawn) [Example 8], at IRAK-4 [1], the Dmax is no less than 90% and the DC50 was less than 10 nM.
As to `CC(C)Oc1cc2c(cc1NC(=O)c1cnn3cccnc13)CN(C1CCN(Cc3ccc4c(c3)CN(C3CCC(=O)NC3=O)C4=O)CC1)C2=O` (stereo not drawn) [Example 10], the DC50 at IRAK-4 [1] was no less than 100 nM.
Same read-out and setting: in the case of `CC(C)Oc1cc2c(cc1NC(=O)c1cnn3cccnc13)CN(CC1CN(CCc3ccc4c(c3)CN(C3CCC(=O)NC3=O)C4=O)C1)C2=O` (stereo not drawn) [Example 26] it was no less than 100 nM.
As for `O=C1CCC(N2C(=O)c3ccc(N4CCC(CN5CCC(N6Cc7cc(NC(=O)c8cnn9cc(Cl)cnc89)c(N8CCOCC8)cc7C6=O)CC5)CC4)cc3C2=O)C(=O)N1` (stereo not drawn) [Example 33], at IRAK-4 [1], the Dmax is 80 to 90% and the DC50 lay in the range of 10 to 50 nM.
With `O=C1CCC(N2Cc3cc(N4CC(CN5CCC(N6Cc7cc(NC(=O)c8cnn9cccnc89)c(N8CCOCC8)cc7C6=O)CC5)C4)ccc3C2=O)C(=O)N1` (stereo not drawn) [Example 34], the DC50 on IRAK-4 [1] was no less than 100 nM.
Consider `O=C1CCC(N2Cc3cc(N4CC(CN5CCC(N6Cc7cc(NC(=O)c8cnn9cccnc89)c(N8CCC(N9CCC9)CC8)cc7C6=O)CC5)C4)ccc3C2=O)C(=O)N1` (stereo not drawn) [Example 35], for which, on IRAK-4 [1], the Dmax was no less than 90% and the DC50 was 10 to 50 nM.
On to `O=C1CCC(N2C(=O)c3ccc(CCN4CCC(N5Cc6cc(NC(=O)c7cnn8cccnc78)c(N7CCOCC7)cc6C5=O)CC4)cc3C2=O)C(=O)N1` (stereo not drawn) [Example 37], for which the DC50 on IRAK-4 [1] was no less than 100 nM.
Turning to `CC(C)Oc1cc2c(cc1NC(=O)c1cnn3cccnc13)CN(C1CCN(C3CN(c4cc5c(cc4F)C(=O)N(C4CCC(=O)NC4=O)C5=O)C3)CC1)C2=O` (stereo not drawn) [Example 63], at IRAK-4 [1], the Dmax was no less than 90% and the DC50 is 10 to 50 nM.
At IRAK-4 [1], `O=C1CCC(N2Cc3cc(N4CCC(CN5CCC(n6cc7cc(NC(=O)c8cnn9cccnc89)c(OCC8CC8)cc7n6)CC5)CC4)ccc3C2=O)C(=O)N1` (stereo not drawn) [Example 118, N-(6-(cyclopropylmethoxy)-2-(1-((1-(2-(2,6-dioxopiperidin-3-yl)-1-oxoisoindolin-5-yl)piperidin-4-yl)methyl)piperidin-4-yl)-2H-indazol-5-yl)pyrazolo[1,5-a]pyrimidine-3-carboxamide] returned a Dmax of no less than 90% and a DC50 of less than 10 nM.
The corresponding values for `O=C1CCC(N2C(=O)c3ccc(OCCOCCN4CCC(n5cc6cc(NC(=O)c7cnn8cc(Cl)cnc78)c(OCC7CC7)cc6n5)CC4)cc3C2=O)C(=O)N1` (stereo not drawn) [Example 120] are no less than 90% and 10 to 50 nM.
For `O=C1CCC(N2C(=O)c3ccc(OCCOCCN4CCC(n5cc6cc(NC(=O)c7cnn8cccnc78)c(OCC7CC7)cc6n5)CC4)cc3C2=O)C(=O)N1` (stereo not drawn) [Example 121], in that order: no less than 90% and 10 to 50 nM.
In the case of `O=C1CCC(N2C(=O)c3ccc(CN4CCC(n5cc6cc(NC(=O)c7cnn8cccnc78)c(OCC7CC7)cc6n5)CC4)cc3C2=O)C(=O)N1` (stereo not drawn) [Example 123], the 50% degradation concentration (DC50) on IRAK-4 [1] was no less than 100 nM.
At IRAK-4 [1], `O=C1CCC(N2C(=O)c3ccc(OCCN4CCC(n5cc6cc(NC(=O)c7cnn8cccnc78)c(OCC7CC7)cc6n5)CC4)cc3C2=O)C(=O)N1` (stereo not drawn) [Example 125] showed a Dmax of 70 to 80% and a DC50 of 10 to 50 nM.
For `O=C1CCC(N2C(=O)c3ccc(CCN4CCC(n5cc6cc(NC(=O)c7cnn8cccnc78)c(OCC7CC7)cc6n5)CC4)cc3C2=O)C(=O)N1` (stereo not drawn) [Example 127], on IRAK-4 [1], the Dmax is no less than 90% and the DC50 was 10 to 50 nM.
On IRAK-4 [1], `O=C1CCC(N2Cc3cc(N4CCC(CN5CCC(n6cc7cc(NC(=O)c8cnn9cc(Cl)cnc89)c(OCC8CC8)cc7n6)CC5)CC4)ccc3C2=O)C(=O)N1` (stereo not drawn) [Example 129] came in with a Dmax of 80 to 90% and a DC50 of less than 10 nM.
Regarding `Cc1cnc2c(C(=O)Nc3cc4cn(C5CCN(CC6CCN(c7ccc8c(c7)C(=O)N(C7CCC(=O)NC7=O)C8=O)CC6)CC5)nc4cc3OCC3CC3)cnn2c1` (stereo not drawn) [Example 130], at IRAK-4 [1], the Dmax is no less than 90% and the DC50 lay within 50 to 100 nM.
`O=C1CCC(N2Cc3cc(N4CCC(CN5CCC(n6cc7cc(NC(=O)c8cnn9cccnc89)c(C8CC8)cc7n6)CC5)CC4)ccc3C2=O)C(=O)N1` (stereo not drawn) [Example 135]: at IRAK-4 [1], the Dmax lay within 80 to 90% and the DC50 was less than 10 nM.
Turning to `COc1cc2nn(C3CCN(CC4CCN(c5ccc6c(c5)C(=O)N(C5CCC(=O)NC5=O)C6=O)CC4)CC3)cc2cc1NC(=O)c1cnn2cc(C)cnc12` (stereo not drawn) [Example 140], on IRAK-4 [1], the Dmax lay within 80 to 90% and the DC50 fell in the range of 10 to 50 nM.
`COc1cc2nn(C3CCN(CCc4ccc5c(c4)C(=O)N(C4CCC(=O)NC4=O)C5=O)CC3)cc2cc1NC(=O)c1cnn2cccnc12` (stereo not drawn) [Example 144] gave a DC50 at IRAK-4 [1] of no less than 100 nM.
For `COc1cc2nn([C@H]3CCN(CC4CCN(c5ccc6c(c5)CN(C5CCC(=O)NC5=O)C6=O)CC4)C[C@@H]3F)cc2cc1NC(=O)c1cnn2cccnc12` (stereo partly drawn) [Example 145], on IRAK-4 [1], the Dmax is no less than 90% and the DC50 fell in the range of 10 to 50 nM.
Consider `COc1cc2nn(C3CN(CC4CCN(c5ccc6c(c5)C(=O)N(C5CCC(=O)NC5=O)C6=O)CC4)C3)cc2cc1NC(=O)c1cnn2cccnc12` (stereo not drawn) [Example 146], for which, on IRAK-4 [1], the DC50 was no less than 100 nM.
Turning to `O=C1CCC(N2Cc3cc(N4CCN(CCN5CCC(n6cc7cc(NC(=O)c8cnn9cccnc89)c(OCC8CC8)cc7n6)CC5)CC4)ccc3C2=O)C(=O)N1` (stereo not drawn) [Example 160, N-(6-(cyclopropylmethoxy)-2-(1-(2-(4-(2-(2,6-dioxopiperidin-3-yl)-1-oxoisoindolin-5-yl)piperazin-1-yl)ethyl)piperidin-4-yl)-2H-indazol-5-yl)pyrazolo[1,5-a]pyrimidine-3-carboxamide], at IRAK-4 [1], the Dmax was no less than 90% and the DC50 was less than 10 nM.
Take `O=C1CCC(N2C(=O)c3ccc(N4CC(CN5CCC(n6cc7cc(NC(=O)c8cnn9cccnc89)c(OCC8CC8)cc7n6)CC5)C4)cc3C2=O)C(=O)N1` (stereo not drawn) [Example 162]: on IRAK-4 [1], the Dmax is no less than 90% and the DC50 was less than 10 nM.
The corresponding values for `O=C1CCC(N2C(=O)c3ccc(N4CC(N5CCC(n6cc7cc(NC(=O)c8cnn9cccnc89)c(OCC8CC8)cc7n6)CC5)C4)cc3C2=O)C(=O)N1` (stereo not drawn) [Example 163] are no less than 90% and 10 to 50 nM.
On IRAK-4 [1], `O=C1CCC(N2C(=O)c3ccc(N4CC(CN5CCC(n6cc7cc(CC(=O)c8cnn9cc(Cl)cnc89)c(OCC8CC8)cc7n6)CC5)C4)cc3C2=O)C(=O)N1` (stereo not drawn) [Example 164] showed a Dmax of no less than 90% and a DC50 of 10 to 50 nM.
On IRAK-4 [1], `CC1(CN2CCC(n3cc4cc(NC(=O)c5cnn6cccnc56)c(OCC5CC5)cc4n3)CC2)CN(c2ccc3c(c2)C(=O)N(C2CCC(=O)NC2=O)C3=O)C1` (stereo not drawn) [Example 168] registered a Dmax of no less than 90% and a DC50 of 10 to 50 nM.
As for `O=C1CCC(N2C(=O)c3ccc(N4CCC([C@H](F)Cn5cc6cc(NC(=O)c7cnn8cccnc78)c(OCC7CC7)cc6n5)CC4)cc3C2=O)C(=O)N1` (stereo partly drawn) [Example 171], on IRAK-4 [1], the Dmax was 70 to 80% and the DC50 was 50 to 100 nM.
As to `CC(C)Oc1cc2c(cc1NC(=O)c1cnn3cccnc13)CN([C@H]1CC[C@H](CN3CCC(c4ccc5c(c4)C(=O)N(C4CCC(=O)NC4=O)C5=O)CC3)CC1)C2=O` (stereo partly drawn) [Example 432], in the assay with IL6 [2], the Dmax is 70 to 80% and the IC50 is 10 to 50 nM. In addition, in the assay with IL6 [3], the Dmax was no less than 90% and the concentration for half-maximal inhibition (IC50) is 10 to 50 nM. For the same compound, at IRAK-4 [4], the DC50 was 1 to 5 nM, the Dmax is no less than 90% and the “PBMC DC90” value is “A (A represents a DC90 value <10.0 nM)”.
As to `O=C1CCC(N2Cc3ccc(N4CCN(C[C@H]5CC[C@H](n6cc7cc(NC(=O)c8cnn9cccnc89)c(OCC(F)F)cc7n6)CC5)CC4)cc3C2=O)C(=O)N1` (stereo partly drawn) [Example 433], in the assay on IL6 [2], the Dmax was in the range of 80 to 90% and the IC50 is less than 10 nM. For the same compound, in the assay on IL6 [3], the Dmax was no less than 90% and the IC50 is less than 10 nM. Moreover, at IRAK-4 [4], the DC50 was less than 1 nM, the Dmax is no less than 90% and the “PBMC DC90” value is recorded as “A (A represents a DC90 value <10.0 nM)”.
